# Patent publication US20220281848A1, “PYRAZOLE-SUBSTITUTED PYRROLIDINONES AS HERBICIDES” (FMC Corporation, priority 2019, published 2022)
# System: plants
# Experiment: Test D post-emergence, other plants of Tables D2 and D4
# Assay type: in vivo
# Conditions: post-emergence
# Procedure: A formulation containing 50 g/L of the test chemical was prepared by dissolving the active ingredient in a mixture of organic solvents and emulsifier, details of which are provided in the table. This formulation was then mixed with a small, variable amount of acetone to aid dissolution, before addition of a 0.2% v/v aqueous solution of an adjuvant, as the aqueous diluent, to form an aqueous spray solution which contains a predetermined concentration of the active ingredient.
# This aqueous spray solution was then sprayed onto plants including maize and wheat that had been seed treated with a herbicide safener, after one day's cultivation (for pre-emergence) or after about 12 days' cultivation (for post-emergence). The plants were grown from seeds sown in standard soil, placed in a glasshouse under controlled conditions (at 24/18° C. or 20/16° C., day/night; 16 h light; 65% humidity). After spray application the plants were then grown in a glasshouse under the same conditions and watered twice daily. After 15 d for post-emergence and 20 DAA for pre-emergence the test was evaluated (100=total damage to plant; 0=no damage to plant).
smiles,measurement,setting,value
CCn1nc([C@H]2CN(C)C(=O)[C@@H]2C(=O)Nc2cccc(F)c2F)c2cc(F)ccc21 [Compound 8],"damage to plant (100=total damage to plant; 0=no damage to plant), ABUTH","rate 130, evaluated after 15 d",0
same,"damage to plant (100=total damage to plant; 0=no damage to plant), ABUTH","rate 250, evaluated after 15 d",0
same,"damage to plant (100=total damage to plant; 0=no damage to plant), ABUTH","rate 500, evaluated after 15 d",0
same,"damage to plant (100=total damage to plant; 0=no damage to plant), AMARE","rate 130, evaluated after 15 d",0
same,"damage to plant (100=total damage to plant; 0=no damage to plant), AMARE","rate 250, evaluated after 15 d",0
same,"damage to plant (100=total damage to plant; 0=no damage to plant), AMARE","rate 500, evaluated after 15 d",0
same,"damage to plant (100=total damage to plant; 0=no damage to plant), BIDPI","rate 130, evaluated after 15 d",0
same,"damage to plant (100=total damage to plant; 0=no damage to plant), BIDPI","rate 250, evaluated after 15 d",0
same,"damage to plant (100=total damage to plant; 0=no damage to plant), BIDPI","rate 500, evaluated after 15 d",0
same,"damage to plant (100=total damage to plant; 0=no damage to plant), BRAPL","rate 130, evaluated after 15 d",10
same,"damage to plant (100=total damage to plant; 0=no damage to plant), BRAPL","rate 250, evaluated after 15 d",70
same,"damage to plant (100=total damage to plant; 0=no damage to plant), BRAPL","rate 500, evaluated after 15 d",70
same,"damage to plant (100=total damage to plant; 0=no damage to plant), CYPES","rate 130, evaluated after 15 d",0
same,"damage to plant (100=total damage to plant; 0=no damage to plant), CYPES","rate 250, evaluated after 15 d",0
same,"damage to plant (100=total damage to plant; 0=no damage to plant), CYPES","rate 500, evaluated after 15 d",0
same,"damage to plant (100=total damage to plant; 0=no damage to plant), DIGSA","rate 130, evaluated after 15 d",0
same,"damage to plant (100=total damage to plant; 0=no damage to plant), DIGSA","rate 250, evaluated after 15 d",80
same,"damage to plant (100=total damage to plant; 0=no damage to plant), DIGSA","rate 500, evaluated after 15 d",80
same,"damage to plant (100=total damage to plant; 0=no damage to plant), ECHCG","rate 130, evaluated after 15 d",0
same,"damage to plant (100=total damage to plant; 0=no damage to plant), ECHCG","rate 250, evaluated after 15 d",80
same,"damage to plant (100=total damage to plant; 0=no damage to plant), ECHCG","rate 500, evaluated after 15 d",80
same,"damage to plant (100=total damage to plant; 0=no damage to plant), EPHHL","rate 250, evaluated after 15 d",30
same,"damage to plant (100=total damage to plant; 0=no damage to plant), EPHHL","rate 500, evaluated after 15 d",20
same,"damage to plant (100=total damage to plant; 0=no damage to plant), GLXMA","rate 130, evaluated after 15 d",0
same,"damage to plant (100=total damage to plant; 0=no damage to plant), GLXMA","rate 250, evaluated after 15 d",0
same,"damage to plant (100=total damage to plant; 0=no damage to plant), GLXMA","rate 500, evaluated after 15 d",0
same,"damage to plant (100=total damage to plant; 0=no damage to plant), IPOHE","rate 130, evaluated after 15 d",0
same,"damage to plant (100=total damage to plant; 0=no damage to plant), IPOHE","rate 250, evaluated after 15 d",0
same,"damage to plant (100=total damage to plant; 0=no damage to plant), IPOHE","rate 500, evaluated after 15 d",0
same,"damage to plant (100=total damage to plant; 0=no damage to plant), ORYSA","rate 130, evaluated after 15 d",0
same,"damage to plant (100=total damage to plant; 0=no damage to plant), ORYSA","rate 250, evaluated after 15 d",0
same,"damage to plant (100=total damage to plant; 0=no damage to plant), ORYSA","rate 500, evaluated after 15 d",10
same,"damage to plant (100=total damage to plant; 0=no damage to plant), PANMI","rate 130, evaluated after 15 d",0
same,"damage to plant (100=total damage to plant; 0=no damage to plant), PANMI","rate 250, evaluated after 15 d",0
same,"damage to plant (100=total damage to plant; 0=no damage to plant), PANMI","rate 500, evaluated after 15 d",0
same,"damage to plant (100=total damage to plant; 0=no damage to plant), SETFA","rate 130, evaluated after 15 d",0
same,"damage to plant (100=total damage to plant; 0=no damage to plant), SETFA","rate 250, evaluated after 15 d",60
same,"damage to plant (100=total damage to plant; 0=no damage to plant), SETFA","rate 500, evaluated after 15 d",80
same,"damage to plant (100=total damage to plant; 0=no damage to plant), SIDSP","rate 130, evaluated after 15 d",0
same,"damage to plant (100=total damage to plant; 0=no damage to plant), SIDSP","rate 250, evaluated after 15 d",0
same,"damage to plant (100=total damage to plant; 0=no damage to plant), SIDSP","rate 500, evaluated after 15 d",10
same,"damage to plant (100=total damage to plant; 0=no damage to plant), SORVU","rate 130, evaluated after 15 d",0
same,"damage to plant (100=total damage to plant; 0=no damage to plant), SORVU","rate 250, evaluated after 15 d",0
same,"damage to plant (100=total damage to plant; 0=no damage to plant), SORVU","rate 500, evaluated after 15 d",0
CCn1nc([C@H]2CN(C)C(=O)[C@@H]2C(=O)Nc2cccc(F)c2F)c2c(F)cccc21 [Compound 7],"damage to plant (100=total damage to plant; 0=no damage to plant), ABUTH","rate 130, evaluated after 15 d",0
same,"damage to plant (100=total damage to plant; 0=no damage to plant), ABUTH","rate 250, evaluated after 15 d",10
same,"damage to plant (100=total damage to plant; 0=no damage to plant), ABUTH","rate 500, evaluated after 15 d",20
same,"damage to plant (100=total damage to plant; 0=no damage to plant), AMARE","rate 130, evaluated after 15 d",0
same,"damage to plant (100=total damage to plant; 0=no damage to plant), AMARE","rate 250, evaluated after 15 d",0
same,"damage to plant (100=total damage to plant; 0=no damage to plant), AMARE","rate 500, evaluated after 15 d",10
same,"damage to plant (100=total damage to plant; 0=no damage to plant), BIDPI","rate 130, evaluated after 15 d",0
same,"damage to plant (100=total damage to plant; 0=no damage to plant), BIDPI","rate 250, evaluated after 15 d",0
same,"damage to plant (100=total damage to plant; 0=no damage to plant), BIDPI","rate 500, evaluated after 15 d",0
same,"damage to plant (100=total damage to plant; 0=no damage to plant), BRAPL","rate 130, evaluated after 15 d",0
same,"damage to plant (100=total damage to plant; 0=no damage to plant), BRAPL","rate 250, evaluated after 15 d",80
same,"damage to plant (100=total damage to plant; 0=no damage to plant), BRAPL","rate 500, evaluated after 15 d",80
same,"damage to plant (100=total damage to plant; 0=no damage to plant), CYPES","rate 130, evaluated after 15 d",0
same,"damage to plant (100=total damage to plant; 0=no damage to plant), CYPES","rate 250, evaluated after 15 d",0
same,"damage to plant (100=total damage to plant; 0=no damage to plant), CYPES","rate 500, evaluated after 15 d",0
same,"damage to plant (100=total damage to plant; 0=no damage to plant), DIGSA","rate 130, evaluated after 15 d",0
same,"damage to plant (100=total damage to plant; 0=no damage to plant), DIGSA","rate 250, evaluated after 15 d",80
same,"damage to plant (100=total damage to plant; 0=no damage to plant), DIGSA","rate 500, evaluated after 15 d",80
same,"damage to plant (100=total damage to plant; 0=no damage to plant), ECHCG","rate 130, evaluated after 15 d",20
same,"damage to plant (100=total damage to plant; 0=no damage to plant), ECHCG","rate 250, evaluated after 15 d",70
same,"damage to plant (100=total damage to plant; 0=no damage to plant), ECHCG","rate 500, evaluated after 15 d",70
same,"damage to plant (100=total damage to plant; 0=no damage to plant), EPHHL","rate 130, evaluated after 15 d",0
same,"damage to plant (100=total damage to plant; 0=no damage to plant), EPHHL","rate 250, evaluated after 15 d",20
same,"damage to plant (100=total damage to plant; 0=no damage to plant), EPHHL","rate 500, evaluated after 15 d",40
same,"damage to plant (100=total damage to plant; 0=no damage to plant), GLXMA","rate 130, evaluated after 15 d",0
same,"damage to plant (100=total damage to plant; 0=no damage to plant), GLXMA","rate 250, evaluated after 15 d",0
same,"damage to plant (100=total damage to plant; 0=no damage to plant), GLXMA","rate 500, evaluated after 15 d",0
same,"damage to plant (100=total damage to plant; 0=no damage to plant), IPOHE","rate 130, evaluated after 15 d",0
same,"damage to plant (100=total damage to plant; 0=no damage to plant), IPOHE","rate 250, evaluated after 15 d",0
same,"damage to plant (100=total damage to plant; 0=no damage to plant), IPOHE","rate 500, evaluated after 15 d",0
same,"damage to plant (100=total damage to plant; 0=no damage to plant), ORYSA","rate 130, evaluated after 15 d",0
same,"damage to plant (100=total damage to plant; 0=no damage to plant), ORYSA","rate 250, evaluated after 15 d",0
same,"damage to plant (100=total damage to plant; 0=no damage to plant), ORYSA","rate 500, evaluated after 15 d",0
same,"damage to plant (100=total damage to plant; 0=no damage to plant), PANMI","rate 130, evaluated after 15 d",0
same,"damage to plant (100=total damage to plant; 0=no damage to plant), PANMI","rate 250, evaluated after 15 d",0
same,"damage to plant (100=total damage to plant; 0=no damage to plant), PANMI","rate 500, evaluated after 15 d",0
same,"damage to plant (100=total damage to plant; 0=no damage to plant), SETFA","rate 130, evaluated after 15 d",0
same,"damage to plant (100=total damage to plant; 0=no damage to plant), SETFA","rate 250, evaluated after 15 d",70
same,"damage to plant (100=total damage to plant; 0=no damage to plant), SETFA","rate 500, evaluated after 15 d",70
same,"damage to plant (100=total damage to plant; 0=no damage to plant), SIDSP","rate 500, evaluated after 15 d",30
same,"damage to plant (100=total damage to plant; 0=no damage to plant), SORVU","rate 130, evaluated after 15 d",0
same,"damage to plant (100=total damage to plant; 0=no damage to plant), SORVU","rate 250, evaluated after 15 d",0
same,"damage to plant (100=total damage to plant; 0=no damage to plant), SORVU","rate 500, evaluated after 15 d",60
